Source: patent publication US20240124458A1, “POLYMORPHS OF AVAPRITINIB AND METHODS FOR PREPARING THE POLYMORPHS” (Macfarlan Smith Limted, priority 2020, published 2024)

Experiment: Gravimetric vapour sorption (GVS) isotherm, with XRPD after analysis
Format: physicochemical
Settings: for water uptake (GVS isotherm plot): 25° C./90% RH; for XRPD after GVS analysis (change in form): after GVS cycles, 0-90% RH at 25° C.
Description: XRPD diffractograms were collected on a Bruker D8 diffractometer using Cu Kα radiation (40 kV, 40 mA) and a θ-2θ goniometer fitted with a Ge monochromator. The incident beam passes through a 2.0 mm divergence slit followed by a 0.2 mm anti-scatter slit and knife edge. The diffracted beam passes through an 8.0 mm receiving slit with 2.5° Soller slits followed by the Lynxeye Detector. The software used for data collection and analysis was Diffrac Plus XRD Commander and Diffrac Plus EVA respectively.
Hygroscopicity of a solid material may be determined by means of gravimetric vapour sorption (GVS) analysis, sometimes known by dynamic vapour sorption (DVS) analysis.
The experiment subjects a sample material which is held in a fine wire basket on a microbalance within a temperature and humidity controlled environment (chamber). Using the software, the collected data can then be processed to determine the isotherm points at the increment ranges specified during the experiment and show the overall water uptake of the material.
Sorption isotherms were obtained using a SMS DVS Intrinsic moisture sorption analyser, controlled by DVS Intrinsic Control software. The sample temperature was maintained at 25° C. by the instrument controls. The humidity was controlled by mixing streams of dry and wet nitrogen, with a total flow rate of 200 ml/min. The relative humidity was measured by a calibrated Rotronic probe (dynamic range of 1.0-100% RH), located near the sample. The weight change, (mass relaxation) of the sample as a function of %RH was constantly monitored by a microbalance (accuracy ±0.005 mg).
Typically, 5-30 mg of sample was placed in a tared mesh stainless steel basket under ambient conditions. The sample was loaded and unloaded at 40% RH and 25° C. (typical room conditions). A moisture sorption isotherm was performed as outlined below (2 scans per complete cycle). The standard isotherm was performed at 25° C. at 10% RH intervals over a 0-90% RH range. Typically, a double cycle (4 scans) was carried out. Data analysis was carried out within Microsoft Excel using the DVS Analysis Suite.

Row | Structure (SMILES) | water uptake (GVS isotherm plot) | XRPD after GVS analysis (change in form)
1 | Cn1cc(-c2cc3c(N4CCN(c5ncc([C@@](C)(N)c6ccc(F)cc6)cn5)CC4)ncnn3c2)cn1 [avapritinib anhydrate, (1S)-1-(4-fluorophenyl)-1-[2-[4-[6-(1-methylpyrazol-4-yl)pyrrolo[2,1-f][1,2,4]triazin-4-yl]piperazin-1-yl]pyrimidin-5-yl]ethanamine] | about 0.1 % w/w | unchanged
2 | Cn1cc(-c2cc3c(N4CCN(c5ncc([C@@](C)(N)c6ccc(F)cc6)cn5)CC4)ncnn3c2)cn1 [avapritinib hydrate, (1S)-1-(4-fluorophenyl)-1-[2-[4-[6-(1-methylpyrazol-4-yl)pyrrolo[2,1-f][1,2,4]triazin-4-yl]piperazin-1-yl]pyrimidin-5-yl]ethanamine] | about 4.0 % w/w | unchanged
